In ChEMBL document CHEMBL4665723, “Evaluation of the effect of synthetic compounds derived from azidothymidine on MDA-MB-231 type breast cancer cells” (Bioorg Med Chem Lett, 2020):
Calls of active or inactive are those of the source. The calls are words filed in the database; no cut-off is given here.

Tests used:
MDA-MB-231 [1] = assay: Antiproliferative activity against human MDA-MB-231 cells at 6.25 to 100 uM incubated for 24 to 48 hrs by MTT assay; assay type: functional, cell-based; settings: dose microM 6.25-100, time hrs 24-48
MCF7 = assay: Antiproliferative activity against human MCF7 cells assessed as inhibition of cell growth; assay type: functional, cell-based
MDA-MB-231 [2] = assay: Antiproliferative activity against human MDA-MB-231 cells at >12.5 uM incubated for 48 hrs by MTT assay; assay type: functional, cell-based; settings: dose microM >12.5, time 48.0 hrs
MDA-MB-231 [3] = assay: Antiproliferative activity against human MDA-MB-231 cells incubated for 48 hrs by MTT assay; assay type: functional, cell-based; settings: MDA-MB-231, 48 h
MDA-MB-231 [4] = assay: Induction of cell cycle arrest in human MDA-MB-231 cells assessed as accumulation in G0/G1 phase at 12.5 uM incubated for 48 hrs by PI staining based flow cytometric analysis (reference value: 51.75%); assay type: functional
5637 = assay: Antiproliferative activity against human 5637 cells assessed as inhibition of cell growth incubated for 24 hrs by MTT assay; assay type: functional, cell-based; settings: Homo sapiens, 5637, 24 h
MDA-MB-231 [5] = assay: Antiproliferative activity against human MDA-MB-231 cells incubated for 24 hrs by MTT assay; assay type: functional, cell-based; settings: MDA-MB-231, 24 h
MDA-MB-231 [6] = assay: Induction of apoptosis in human MDA-MB-231 cells assessed as early apoptotic cells at 12.5 uM incubated for 48 hrs by AnnexinV and 7AAD staining based flow cytometric analysis; assay type: functional, cell-based
MDA-MB-231 [7] = assay: Induction of cell cycle arrest in human MDA-MB-231 cells assessed as accumulation in S phase at 12.5 uM incubated for 48 hrs by PI staining based flow cytometric analysis (reference value: 19.35%); assay type: functional
MDA-MB-231 [8] = assay: Antiproliferative activity against human MDA-MB-231 cells assessed as inhibition of cell growth at >25 uM incubated for 24 hrs by MTT assay relative to control; assay type: functional; settings: dose microM >25
MDA-MB-231 [9] = assay: Induction of apoptosis in human MDA-MB-231 cells assessed as late apoptotic cells at 12.5 uM incubated for 48 hrs by AnnexinV and 7AAD staining based flow cytometric analysis; assay type: functional, cell-based
MDA-MB-231 [10] = assay: Induction of cell cycle arrest in human MDA-MB-231 cells assessed as accumulation in G2/M phase at 12.5 uM incubated for 48 hrs by PI staining based flow cytometric analysis (reference value: 19.7%); assay type: functional

Compound	Activity (MDA-MB-231 [1])	IC50 (MCF7) [µM]	Activity (MDA-MB-231 [2])	IC50 (MDA-MB-231 [3]) [µM]	Activity (MDA-MB-231 [4]) [%]	IC50 5637 [µM]	IC50 (MDA-MB-231 [5]) [µM]	Activity (MDA-MB-231 [6])	Activity (MDA-MB-231 [7]) [%]	inhibition (INH) (MDA-MB-231 [8]) [%]	Activity (MDA-MB-231 [9])	Activity (MDA-MB-231 [10]) [%]
Cc1cn([C@H]2C[C@H](N=[N+]=[N-])[C@@H](CO)O2)c(=O)[nH]c1=O	inactive											
CNCCC(Oc1ccc(C(F)(F)F)cc1)c1ccccc1 (configuration not stated) [FLUOXETINE]		0.01										
Cc1cn([C@H]2C[C@H](n3cc(CO)nn3)[C@@H](C[Te]c3ccccc3)O2)c(=O)[nH]c1=O			Active	11.8	40.55	8.09	24.9	inactive	27.3	50	inactive	16.9
Cc1cn([C@H]2C[C@H](n3cc(CCCO)nn3)[C@@H](C[Te]c3ccccc3)O2)c(=O)[nH]c1=O			Active	9.62	44.9	1.99	21.6	inactive	28.2	50	inactive	19.95
